# Assay results taken from ChEMBL document CHEMBL1141746, “Three new diterpenes from the marine soft coral Lobophytum crassum” (1998).
# Active and inactive are the calls of the source. No cut-off for these calls is given here.
# How the values were obtained:
# [1] = system: Microbotryum violaceum; experiment: Antimicrobial activity against Ustilago violacea at 50 ug by agar plate diffusion assay; assay type: functional; details: read-out: IZ
# [2] = biological target: Tyrosine-protein kinase Lck (Homo sapiens) (UniProt P06239); experiment: Inhibition of tyrosine kinase lckp56 by ELISA
# Tyrosine-protein kinase Lck (Homo sapiens), sequence (P06239 2-509 limits assumed): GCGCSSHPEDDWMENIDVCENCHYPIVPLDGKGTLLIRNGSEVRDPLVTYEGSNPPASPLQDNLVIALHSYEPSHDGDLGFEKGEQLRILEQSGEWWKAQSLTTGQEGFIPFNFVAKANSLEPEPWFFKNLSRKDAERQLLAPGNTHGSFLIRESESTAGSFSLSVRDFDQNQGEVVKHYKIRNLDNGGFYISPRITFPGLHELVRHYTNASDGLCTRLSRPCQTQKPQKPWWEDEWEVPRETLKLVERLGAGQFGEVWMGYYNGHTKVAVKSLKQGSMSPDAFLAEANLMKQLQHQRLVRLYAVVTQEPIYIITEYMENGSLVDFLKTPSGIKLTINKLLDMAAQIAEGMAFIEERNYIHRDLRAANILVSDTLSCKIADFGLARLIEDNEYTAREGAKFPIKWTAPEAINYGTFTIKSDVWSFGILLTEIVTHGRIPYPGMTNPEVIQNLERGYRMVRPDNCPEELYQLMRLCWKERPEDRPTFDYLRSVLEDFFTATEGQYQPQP
# [3] = biological target: Human immunodeficiency virus type 1 reverse transcriptase (Human immunodeficiency virus 1) (UniProt Q72547); experiment: Inhibition of HIV1 reverse transcriptase by ELISA
# [4] = system: [Chlorella] fusca; experiment: Antimicrobial activity against Chlorella fusca at 50 ug by agar plate diffusion assay; assay type: functional; details: Scenedesmus fuscus; read-out: IZ
Compound,zone of inhibition at 50 µg/disc [1],Activity [2],Activity [3],zone of inhibition at 50 µg/disc [4]
COC(=O)C(C)/C1=C/C=C(\C)CC[C@H]2O[C@]2(C)CC/C=C(\C)CC1 (some centres not stated),1 mm,inactive,inactive,–
CC1=C2CC/C(C)=C/CC[C@@]3(C)O[C@H]3CC/C(C)=C/[C@@H]2OC1,3 mm,inactive,inactive,3 mm
